Laboratory results as given in US8450305B2, “Macrocyclic compounds useful as inhibitors of kinases and HSP90” (Universite de Strasbourg, priority 2006, dated 2013).
Read-outs that look alike come from different tables or passages of the source.

Key:
HCC1954 tumor cells = assay: Cytotoxicity, MTS assay, HCC1954; type: cell-based; details: Homo sapiens, 72 hours
Method: (§1) Tumor cells were grown as adherent monolayers at 37° C. in a humidified atmosphere (5% CO2, 95% air). The culture medium was RPMI 1640 containing 2 mM L-glutamine (Ref BE12-702F, Cambrex, Verviers, Belgium) and supplemented with 10% fetal bovine serum (Ref DE14-801E, Cambrex). For experimental use, the adherent tumour cells were detached from the culture flask by a 5-minute treatment with trypsin-versene (Ref O2-007E, Cambrex), diluted in Hanks' medium without calcium or magnesium (Ref BE10-543F, Cambrex) and neutralized by addition of complete culture medium. Before use, cells were counted in a hemocytometer and their viability were assessed by 0.25% trypan blue exclusion. Mycoplasma detection was performed using the MycoAlert® Mycoplasma Detection Kit (Ref LT07-318, Cambrex) in accordance with the manufacturer instructions. The MycoAlert®Assay is a selective biochemical test that exploits the activity of mycoplasmal enzymes. The viable mycoplasma are lysed and the enzymes react with the MycoAlert® substrate catalyzing the conversion of ADP to ATP. By measuring the level of ATP in a sample both before and after the addition of the MycoAlert® substrate a ratio can be obtained which is indicative of the presence or absence of mycoplasma. The mycoplasma test was assayed in duplicate from the culture supernatants of the cell lines and compared to negative and positive controls (MycoAlert® Assay Control Set, Ref LT07-518, Cambrex) (Internal Standard Operating Procedure No TEC-007/002). Both HCC1954 and SK-BR-3 tumour cells (5,000 cells per well) were plated in 96-well flat-bottom microtitration plates (Ref 167008, Nunc, Dutscher, Brumath, France) and incubated at 37° C. for 24 hours before treatment in 190 μl of drug-free culture medium supplemented with 10% FBS. Both HCC1954 and SK-BR-3 tumour cell lines were incubated for 72 hours with […], in ¼ dilution steps, of the test substances (ranging from […]) to be tested as well as paclitaxel (ranging from 10^−7 to 10^−12 M). The cells (190 μl) will be incubated in a 200 μl final volume of culture medium supplemented with 10% FBS containing test substances at 37° C. under 5% CO2. One experiment is performed, each concentration being issued from quadruplicate. Control cells are treated with corresponding vehicle alone. At the end of treatments, the cytotoxic activity is evaluated by a MTS assay. […] Like MTT, MTS is bioreduced by cells into a formazan product that is directly soluble in culture medium without processing, unlike MTT.
(§2) At the end of the cells treatment, 40 μl of a 0.22 μm filtered freshly combined solution of MTS (20 ml at 2 mg/ml, Ref G1111A, Promega, Charbonnières, France) and PMS (1 ml at 0.92 mg/ml, Ref P9625, Sigma) in Dulbecco's Phosphate Buffered Saline (DPBS, Ref 17-513F, Cambrex), were added in each well. Culture plates were incubated for 2 h at 37° C. Absorbency (OD) will be measured at 490 nm in each well using VICTOR^3™ 1420 multilabeled counter (Wallac, PerkinElmer, Courtaboeuf, France).

SK-BR-3 tumor cells = assay: Cytotoxicity, MTS assay, SK-BR-3; type: cell-based; details: Homo sapiens, 72 hours
Method: as §1, §2

ErbB2 = assay: Degradation of HSP90 client protein ErbB2 in SK-BR3, Western blotting; type: cell-based; details: Homo sapiens; for EC50: read-out: EC50, degradation of ErbB2
Description: Thus, after 18 hrs treatment with the compounds, the whole cell protein lysates were obtained, protein concentrations were normalized and the concentration of ErbB2 was quantified by Western blotting (C. Chavany et al J. Biol. Chem. 271:4974-4977 (1996)).

HCC1954 cells = assay: Antitumor activity, HCC1954 induced tumors in CB17/SCID mice; type: in vivo
Method: The compounds of the invention were evaluated for antitumor activity in mice. Tumors were induced […] in healthy CB17/SCID mice by injecting HCC1954 cells into the right flank of 70 mice. Once the induced tumors were an average size of […], the mice were treated with compound a2-1 at 25 mg/kg, 50 mg/kg and 100 mg/kg. Controls of vehicle alone and Herceptin® at 10 mg/kg were utilized.

[1] = Maximum tolerated dose in healthy CB17/SCID mice; type: in vivo
Method: Three healthy CB17/SCID mice were treated with compound 2a-1 at 25 mg/kg, 50 mg/kg and 100 mg/kg once daily for five consecutive days.

HER-2 = HER-2 degradation assay; cited from earlier work
panel of 24 kinase = assay: Radiometric protein kinase assay (33PanQinase), panel of 24 kinases; type: biochemical, human; details: for inhibition in a panel of 24 kinase: at 10 μM
Description: (§3) All protein kinases were expressed in Sf9 insect cells as human recombinant GST-fusion proteins or His-tagged proteins by means of the baculovirus expression system. Kinases were purified by affinity chromatography using either GSH-agarose (Sigma) or Ni-NTH-agarose (Qiagen). The purity of each kinase was checked by SDS-PAGE/silver staining and the identity of each kinase was verified by western blot analysis with kinase specific antibodies or by mass spectroscopy.
A radiometric protein kinase assay (^33PanQinase® Activity Assay) was used for measuring the kinase activity of the 24 protein kinases.
(§4) The assay for all enzymes contained 60 mM HEPES-NaOH, pH 7.5, 3 mM MgCl2, 3 mM MnCl2, 3 μM Na-orthovanadate, 1.2 mM DTT, 50 μg/ml PEG20000, 1 μM [γ-^33P]-ATP (approx. 5×10^05 cpm per well).
(§5) The reaction cocktails were incubated at 30° C. for 80 minutes. The reaction was stopped with 50 μl of 2% (v/v) H3PO4, plates were aspirated and washed two times with 200 μl of 0.9% (w/v) NaCl or 200 μl H2O. Incorporation of ^33Pi was determined with a microplate scintillation counter (Microbeta Trilux, Wallac).
(§6) The median value of the counts in column 1 (n=8) of each assay plate was defined as “low control”. This value reflects unspecific binding of radioactivity to the plate in the absence of a protein kinase but in the presence of the substrate. The median value of the counts in column 7 of each assay plate (n=8) was taken as the “high control”, i.e. full activity in the absence of any inhibitor. The difference between high and low control was taken as 100% activity.
(§7) As part of the data evaluation the low control value from a particular plate was subtracted from the high control value as well as from all 80 “compound values” of the corresponding plate. The residual activity (in %) for each well of a particular plate was calculated by using the following formula: Res. Activity (%)=100×[(cpm of compound−low control)/(high control−low control)]

VEGF-R2 = target: T1, VEGF-R2 (Homo sapiens, UniProt P35968); assay: Radiometric protein kinase assay, VEGF-R2; type: biochemical; details: 1 μM ATP; read-out: Inhibitory activity (IC50:μM) VEGF-R2
T1 construct: host or cells: Sf9 insect cells (baculovirus)
T1 sequence (P35968 20-1356): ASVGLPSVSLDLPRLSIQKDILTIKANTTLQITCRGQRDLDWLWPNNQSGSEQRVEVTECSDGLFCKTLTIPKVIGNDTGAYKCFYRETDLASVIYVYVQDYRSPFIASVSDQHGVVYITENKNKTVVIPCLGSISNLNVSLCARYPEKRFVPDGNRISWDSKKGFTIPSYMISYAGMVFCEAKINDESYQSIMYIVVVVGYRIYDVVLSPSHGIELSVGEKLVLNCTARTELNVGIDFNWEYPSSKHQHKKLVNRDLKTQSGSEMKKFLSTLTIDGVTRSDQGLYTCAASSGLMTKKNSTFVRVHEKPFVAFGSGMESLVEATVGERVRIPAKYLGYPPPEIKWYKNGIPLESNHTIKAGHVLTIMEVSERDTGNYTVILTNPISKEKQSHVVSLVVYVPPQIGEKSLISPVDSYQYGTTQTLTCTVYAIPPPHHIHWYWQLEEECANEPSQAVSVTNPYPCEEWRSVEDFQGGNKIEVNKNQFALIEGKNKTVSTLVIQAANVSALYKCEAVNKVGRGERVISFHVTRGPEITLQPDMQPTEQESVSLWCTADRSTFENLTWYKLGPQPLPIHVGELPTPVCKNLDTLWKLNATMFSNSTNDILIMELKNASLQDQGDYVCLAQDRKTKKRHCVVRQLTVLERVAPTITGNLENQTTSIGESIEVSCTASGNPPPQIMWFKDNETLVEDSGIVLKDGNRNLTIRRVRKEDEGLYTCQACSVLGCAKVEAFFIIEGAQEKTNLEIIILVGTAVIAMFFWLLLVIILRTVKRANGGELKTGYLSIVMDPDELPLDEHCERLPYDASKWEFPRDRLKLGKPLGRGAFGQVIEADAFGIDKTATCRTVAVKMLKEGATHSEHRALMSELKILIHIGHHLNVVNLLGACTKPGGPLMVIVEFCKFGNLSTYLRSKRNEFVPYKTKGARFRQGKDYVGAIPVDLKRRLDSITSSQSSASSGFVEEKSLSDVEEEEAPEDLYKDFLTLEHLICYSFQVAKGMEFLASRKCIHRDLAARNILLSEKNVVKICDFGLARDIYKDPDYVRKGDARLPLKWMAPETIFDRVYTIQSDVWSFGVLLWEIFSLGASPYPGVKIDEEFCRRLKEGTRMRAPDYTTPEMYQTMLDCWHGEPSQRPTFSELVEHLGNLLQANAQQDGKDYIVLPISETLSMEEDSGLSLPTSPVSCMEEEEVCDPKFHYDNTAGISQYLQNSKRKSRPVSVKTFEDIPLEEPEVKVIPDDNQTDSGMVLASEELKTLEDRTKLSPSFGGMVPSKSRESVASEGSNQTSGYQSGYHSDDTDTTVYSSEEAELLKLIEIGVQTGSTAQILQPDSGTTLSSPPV
Description: as §3
A radiometric protein kinase assay (^33PanQinase® Activity Assay) was used for measuring the kinase activity of the 24 protein kinases. All kinase assays were performed in 96-well FlashPlates™ from Perkin Elmer (Boston, Mass., USA) in a 50 μl reaction volume. The reaction cocktail was pipetted in 4 steps in the following order: • 20 μl of assay buffer • 5 μl of ATP solution (in H2O) • 5 μl of test compound (in 10% DMSO) • 10 μl of substrate/10 […] of enzyme solution (premixed)
as §4
For the 24 kinase assays, the following amounts of enzyme and substrate were used per well:
as §5, §6, §7
The residual activities for each concentration and the compound IC50 values were calculated using Quattro Workflow V2.1.0.0 (Quattro Research GmbH, Munich, Germany; www.quattro-research.com). The model used was “Sigmoidal response (variable slope)” with parameters “top” fixed at 100% and “bottom” at 0%.

tumor xenograft models = details: in vivo; cited from earlier work
[2] = cited from earlier work
HSP90 [3] = target: T2, HSP90 (Homo sapiens, UniProt P07900); assay: HSP90 affinity, competition assay with geldanamycin; type: binding
HSP90 [4] = target: T2, HSP90; details: reported; read-out: inhibitor of HSP90; cited from earlier work

O=C1OCC/C=C/CC/C=C/C(=N/OCC(=O)N2CCCCC2)Cc2c(Cl)c(O)cc(O)c21 [2a-1]
EC50 (HCC1954 tumor cells): 320 nM
EC50 (SK-BR-3 tumor cells): 125 nM
EC50 (ErbB2; SK-BR-3, SK-BR3, 18 hrs treatment, Western blotting): 26 nM
tumor size (HCC1954 cells; 25 mg/kg, 50 mg/kg and 100 mg/kg): dose-dependent reduction in tumor size
tumor size compared with Herceptin® at 10 mg/kg (HCC1954 cells; even at the 25 mg/kg dose for three weeks): superior to those obtained in mice treated with Herceptin®
re-growth of tumor after the last treatment (HCC1954 cells; mouse, in vivo): did not occur for three to seven days
weight loss ([1]; 25 mg/kg once daily for five consecutive days): did not show any weight loss
body weight loss ([1]; 50 mg/kg once daily for five consecutive days): slight, but acceptable body weight loss
body weight loss ([1]; 100 mg/kg once daily for five consecutive days): slight, but acceptable body weight loss

O=C1OCC/C=C/CC/C=C/C(=N/OCC(=O)N2CCCCC2)Cc2cc(O)cc(O)c21 [2a-13]
EC50 (HCC1954 tumor cells): 220 nM
EC50 (SK-BR-3 tumor cells): 120 nM
EC50 (ErbB2; SK-BR-3, 18 h): 12 nM

CCCCn1c(Cc2cc(OC)c(OC)c(OC)c2)nc2c(N)ncnc21 [PU3]
IC50 (HER-2): 40000 nM

C[C@@H]1C[C@H]2O[C@@H]2/C=C\C=C\C(=O)Cc2c(Cl)c(O)cc(O)c2C(=O)O1 [Radicicol, radicicol]
IC50 in panel of 24 kinase assays (blank cells; summary in words) (panel of 24 kinase; a blank represents an IC50 > 50 μM): no inhibition
inhibition in a panel of 24 kinase (panel of 24 kinase): no significant activity
IC50 (VEGF-R2): 49 µM
IC50 (ErbB2; SK-BR-3, 18 h, read-out: IC50, degradation of ErbB2): 289 nM
activity in tumor xenograft models (tumor xenograft models): inactive
water solubility [2]: poorly water-soluble

C[C@@H]1CC2O[C@@H]2CC/C=C/C(=O)Cc2c(Cl)c(O)cc(O)c2C(=O)O1 (stereo partly shown) [pochonin A]
IC50 (HSP90 [3]): 90 nM
inhibition in a panel of 24 kinase (panel of 24 kinase): no significant activity
IC50 (HSP90 [4]): 90 nM
